Measured values from patent publication US9714266B2, “Estra-1,3,5(10),16-tetraene-3-carboxamides for inhibition of 17β-hydroxysteroid dehydrogenase (AKR1C3)” (priority 2013, dated 2017).
Converted amounts (≈) assume the structure as drawn. “And” between values parts separate entries of the source, which are not always exact repeats. Equal entries are not always repeated. Where two headings read alike, the source gives them in different places.

Assays:
[1] = target: T1, AKR1C3 (Homo sapiens (Human), UniProt P42330); experiment: AKR1C3 enzyme assay (coumberone reduction, fluorescence); type: biochemical; details: recombinant human AKR1C3, coumberone 0.3 μM, NADPH 10 μM; read-out: AKR1C3 enzyme inhibition IC50
Experimental: The AKR1C3-inhibitory action of the substances of this invention was measured in the AKR1C3 assay described in the paragraphs which follow. Essentially, the enzyme activity is measured by quantifying the coumberol formed from coumberone ([…]., and […]. AM. CHEM. SOC. 130, 14123-14128 (2008) […]., Bauman, D. R., Penning, T. M., and […]., Proc. Natl. Acad. Sci. USA 103, 13304-13309 (2006)). In this assay, the increase in the highly fluorescent coumberol can be determined by NADPH (nicotinamide adenine dinucleotide phosphate)-dependent reduction of the nonfluorescent coumberone by AKR1C3. […] NM_003739). This was expressed as the GST (glutathione S-transferase) fusion protein in E. coli and purified by means of glutathione-Sepharose affinity chromatography. The GST was removed by thrombin digestion with subsequent size exclusion chromatography (Dufort, I., Rheault, P., Huang, X F., Soucy, P., and Luu-The, V., Endocrinology 140, 568-574 (1999)). […] The concentration of the AKR1C3 was matched to the respective activity of the enzyme preparation and set such that the assay worked within the linear range. Typical concentrations were in the region of 1 nM. The reaction was stopped by adding 5 μl of a stop solution consisting of the inhibitor EM-1404 [F. Labrie et al. U.S. Pat. […] Subsequently, the fluorescence of coumberol was measured at 520 nm (excitation at 380 nm) with a suitable measuring instrument (Pherastar from BMG Labtechnologies).

[2] = target: T1, AKR1C3; experiment: AKR1C3 inhibition in a cell-based system (transfected HEK293 cells, coumberol fluorescence); details: HEK293 cells transfected with AKR1C3 expression plasmid; read-out: Cellular AKR1C3 inhibition IC50
Experimental: The inhibition of AKR1C3 by the substances described in this invention was measured in a cell-based assay using […] as the substrate for the AKR1C3 (Halim, M., Yee, D. J., and Sames, D., J. AM. CHEM. SOC. 130, 14123-14128 (2008) and Yee, D. J., Balsanek, V., Bauman, D. R., Penning, T. M., and Sames, D., Proc. Natl. Acad. Sci. USA 103, 13304-13309 (2006)) (cf. Example 48).
The cell system used was HEK293 cells (ATCC, USA) (cell culture medium: DMEM, 1.5 g of glucose, 10% FCS, PSG). The cells were transfected with an AKR1C3 expression plasmid (pCMV6-AC-AKR1C3, GenBank Accession No. NM_003739.4) overnight (X-tremeGENE HP, Roche). The next morning, the cells were sown into black 96-well culture plates with a cell density of 40 000 cells/well (Greiner Bio-One, Frickenhausen, Germany). 7 h later, the cells were incubated with the test substances (dissolved in 100× concentration in DMSO, final concentration between 10^−11M and 10^−5M) and […] (dissolved in cell culture medium, final concentration 5×10^−6M) overnight. The following morning, the fluorescence of coumberol was measured at 535 nm (excitation at 355 nm) with a suitable measuring instrument (Mithras, from Berthold). […] The data were normalized (transfected cells without inhibitor, only DMSO=0% inhibition; transfected cells, 10 μM EM-1404 inhibitor [F. Labrie et al. U.S. Pat. No. 6,541,463, 2003]=100% inhibition) and IC50 values were calculated by a 4-parameter fit.

[3] = Kinetic solubility by laser nephelometry; type: physicochemical; details: kinetic from dmso stock
Experimental: The kinetic solubilities of the inventive substances were determined by laser nephelometry.
The data were recorded using the following instruments:
Liquid handling system: Hamilton Star
Nephelometer: Nepheloskan Ascent
The following chemicals and materials were used: […]
disodium hydrogenphosphate dihydrate potassium dihydrogenphosphate
Preparation of phosphate buffer pH 7.4:
• Solution 1: 9.71 g of disodium hydrogenphosphate dihydrate and • 1.65 g of potassium dihydrogenphosphate dissolved in 1 liter of water • Solution 2: 10 mg of gum arabic dissolved in 1 liter of water […]
150 ml of solution 1 and 100 ml of solution 2 were diluted with 750 ml of water.
150 μl of a 10 mM DMSO stock solution were pipetted into a plate (deep-well plate, Abgene, PP, 1.2 ml). The stock solution was diluted with DMSO, which led to a new multi-titre plate (MTP, Greiner bio-one, PS, V-Form) with eight concentrations: 10/5/2.5/1.25/0.625/0.313/0.156 and 0.078 mM. 261 μl of phosphate buffer were transferred into a further plate (96 cliniplate, UB Thermo Electron Corporation) and admixed with 9 μl of the DMSO stock solutions.
The concentration of the DMSO cosolvent was kept constant at 3%.
The plates obtained (cliniplates) were analysed in the nephelometer.

[4] = phosphate buffer with 3% DMSO, aqueous buffer, phosphate buffer pH 7.4, 3% DMSO, read-out: Nephelometric solubility at pH = 7.4

T1 sequence (P42330 whole entry): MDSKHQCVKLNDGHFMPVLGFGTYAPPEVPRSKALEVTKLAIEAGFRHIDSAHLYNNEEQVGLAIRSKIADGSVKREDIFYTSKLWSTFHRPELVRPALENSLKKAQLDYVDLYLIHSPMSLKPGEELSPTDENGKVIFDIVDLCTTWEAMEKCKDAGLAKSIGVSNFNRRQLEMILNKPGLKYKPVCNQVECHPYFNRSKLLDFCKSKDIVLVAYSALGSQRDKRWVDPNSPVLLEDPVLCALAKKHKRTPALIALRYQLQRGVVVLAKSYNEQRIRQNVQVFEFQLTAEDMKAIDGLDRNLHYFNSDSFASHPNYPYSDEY

SMILES	IC50 [1]	IC50 [2]	solubility [3, 4] [µg/mL]	solubility ([3]; pH 7.4, aqueous buffer) [µg/mL]
C[C@]12C[C@H](F)[C@@H]3c4ccc(C(N)=O)cc4CC[C@H]3[C@@H]1CC=C2c1cncc(F)c1 [Example 7, 11β-fluoro-17-(5-fluoropyridin-3-yl)oestra-1,3,5(10),16-tetraene-3-carboxamide]	27 nM	83 nM and 150 nM	–	–
CN(CC(O)CO)C(=O)c1ccc2c(c1)CC[C@@H]1[C@@H]2CC[C@]2(C)C(c3cncc(F)c3)=CC[C@@H]12 (mixture of isomers) [Example 35, N—[(RS)-2,3-dihydroxypropyl]-17-(5-fluoropyridin-3-yl)-N-methyloestra-1,3,5(10),16-tetraene-3-carboxamide]	17 nM	–	22	–
C[C@]12CC[C@@H]3c4ccc(C(=O)N5CCC[C@@H](O)C5)cc4CC[C@H]3[C@@H]1CC=C2c1cncc(F)c1 [Example 17, 17-(5-fluoropyridin-3-yl)oestra-1,3,5(10),16-tetraen-3-yl (R)-3-hydroxypiperidin-1-yl ketone]	29 nM and 20 nM	34 nM and 28 nM	–	–
CNC(=O)[C@@H]1CCCN1C(=O)c1ccc2c(c1)CC[C@@H]1[C@@H]2CC[C@]2(C)C(c3cncc(F)c3)=CC[C@@H]12 [Example 29, 1-{[17-(5-fluoropyridin-3-yl)oestra-1,3,5(10),16-tetraen-3-yl]carbonyl}-N-methyl-L-prolinamide]	10 nM	–	–	24 (≈ 49.2 µM)
C[C@]12CC[C@@H]3c4ccc(C(=O)N5CCC[C@H]5c5nnn[nH]5)cc4CC[C@H]3[C@@H]1CC=C2c1cncc(F)c1 [Example 28, 17-(5-fluoropyridin-3-yl)oestra-1,3,5(10),16-tetraen-3-yl (S)-2-(1H-tetrazol-5-yl)pyrrolidin-1-yl ketone]	9 nM	–	–	166 (≈ 333 µM)
C[C@]12CC[C@@H]3c4ccc(C(=O)NCCc5nnn[nH]5)cc4CC[C@H]3[C@@H]1CC=C2c1cncc(F)c1 [Example 21, 17-(5-fluoropyridin-3-yl)-N-[2-(1H-tetrazol-5-yl)ethyl]oestra-1,3,5(10),16-tetraene-3-carboxamide]	5 nM	–	–	158 (≈ 334 µM)
C[C@@H](O)CNC(=O)c1ccc2c(c1)CC[C@@H]1[C@@H]2CC[C@]2(C)C(c3cncc(F)c3)=CC[C@@H]12 [Example 38, 17-(5-fluoropyridin-3-yl)-N—[(R)-2-hydroxypropyl]oestra-1,3,5(10),16-tetraene-3-carboxamide]	4 nM	–	–	145 (≈ 334 µM)
CC1(C)CC[C@@]2(CC[C@H]3[C@@H]4CCc5cc(C(N)=O)ccc5[C@H]4CC[C@@]32C)OC1=O [EM-1404, reference compound]	–	–	18 (≈ 45.5 µM)	–
C[C@]12CC[C@@H]3c4ccc(C(=O)NCc5nnn[nH]5)cc4CC[C@H]3[C@@H]1CC=C2c1cncc(F)c1 [Example 22, 17-(5-fluoropyridin-3-yl)-N-(1H-tetrazol-5-ylmethyl)oestra-1,3,5(10),16-tetraene-3-carboxamide]	5 nM	–	–	153 (≈ 334 µM)
C[C@]12CC[C@@H]3c4ccc(C(N)=O)cc4CC[C@H]3[C@@H]1CC=C2c1cncc(C(F)(F)F)c1 [Example 3, 17-[5-(trifluoromethyl)pyridin-3-yl]oestra-1,3,5(10),16-tetraene-3-carboxamide]	46 nM and 25 nM	–	–	–
C[C@]12CC[C@@H]3c4ccc(C(=O)NC[C@H](O)CO)cc4CC[C@H]3[C@@H]1CC=C2c1cncc(F)c1 [Example 33, N—[(S)-2,3-dihydroxypropyl]-17-(5-fluoropyridin-3-yl)oestra-1,3,5(10),16-tetraene-3-carboxamide]	4 nM and 5 nM	–	80 (≈ 178 µM)	–
C[C@]12CC[C@@H]3c4ccc(C(=O)N5CCC[C@H]5C(N)=O)cc4CC[C@H]3[C@@H]1CC=C2c1cncc(F)c1 [Example 30, 1-{[17-(5-fluoropyridin-3-yl)oestra-1,3,5(10),16-tetraen-3-yl]carbonyl}-L-prolinamide]	12 nM	–	–	–
C[C@]12CC[C@@H]3c4ccc(C(=O)NCCOCCO)cc4CC[C@H]3[C@@H]1CC=C2c1cncc(F)c1 [Example 46, 17-(5-fluoropyridin-3-yl)-N-[2-(2-hydroxyethoxy)ethyl]oestra-1,3,5(10),16-tetraene-3-carboxamide]	6 nM	–	–	–
C[C@]12CC[C@@H]3c4ccc(C(=O)N5CCC(O)CC5)cc4CC[C@H]3[C@@H]1CC=C2c1cncc(F)c1 [Example 14, 17-(5-fluoropyridin-3-yl)oestra-1,3,5(10),16-tetraen-3-yl 4-hydroxypiperidin-1-yl ketone]	54 nM and 37 nM	–	–	–
CC(C)(CNC(=O)c1ccc2c(c1)CC[C@@H]1[C@@H]2CC[C@]2(C)C(c3cncc(F)c3)=CC[C@@H]12)NS(C)(=O)=O [Example 31, 17-(5-fluoropyridin-3-yl)-N-{2-methyl-2-[(methylsulphonyl)amino]propyl}oestra-1,3,5(10),16-tetraene-3-carboxamide]	19 nM	–	–	–
CCN(CCO)C(=O)c1ccc2c(c1)CC[C@@H]1[C@@H]2CC[C@]2(C)C(c3cncc(F)c3)=CC[C@@H]12 [Example 32, N-ethyl-17-(5-fluoropyridin-3-yl)-N-(2-hydroxyethyl)oestra-1,3,5(10),16-tetraene-3-carboxamide]	11 nM	–	–	–
C[C@@H](CO)NC(=O)c1ccc2c(c1)CC[C@@H]1[C@@H]2CC[C@]2(C)C(c3cncc(F)c3)=CC[C@@H]12 [Example 40, 17-(5-fluoropyridin-3-yl)-N—[(S)-1-(hydroxymethyl)ethyl]oestra-1,3,5(10),16-tetraene-3-carboxamide]	–	–	–	145 (≈ 334 µM)
CNS(=O)(=O)CCNC(=O)c1ccc2c(c1)CC[C@@H]1[C@@H]2CC[C@]2(C)C(c3cncc(C(F)(F)F)c3)=CC[C@@H]12 [Example 25, N-[2-(N-methylsulphamoyl)ethyl]-17-[5-(trifluoromethyl)pyridin-3-yl]oestra-1,3,5(10),16-tetraene-3-carboxamide]	48 nM	–	–	–
CC1(CNC(=O)c2ccc3c(c2)CC[C@@H]2[C@@H]3CC[C@]3(C)C(c4cncc(F)c4)=CC[C@@H]23)COC1 [Example 43, 17-(5-fluoropyridin-3-yl)-N-[(3-methyloxetan-3-yl)methyl]oestra-1,3,5(10),16-tetraene-3-carboxamide]	7 nM	–	–	154 (≈ 334 µM)
CCNC(=O)c1ccc2c(c1)CC[C@@H]1[C@@H]2CC[C@]2(C)C(c3cncc(F)c3)=CC[C@@H]12 [Example 39, N-ethyl-17-(5-fluoropyridin-3-yl)oestra-1,3,5(10),16-tetraene-3-carboxamide]	5 nM	–	–	–
